# Results from patent publication US11401271B2, “Fused heterocyclic compound, pyrazole-ring-containing fused heterocyclic compound, agricultural composition containing thereof, and method of using the composition” (SOUTH CHINA AGRICULTURAL UNIVERSITY, priority 2017, dated 2022).
# Where two headings read alike, the source gives them in different places.
# Assays:
# Assay in all cases: whole plant or invertebrate
# Format in all cases: in vivo
# Solenopsis invicta = conditions: for mortality at 100 ppm: Solenopsis invicta
# Method: (4) Insecticidal Activity on Solenopsis invicta.
# As a hymenoptera pests and a social insect, Solenopsis invicta is one of the most destructive invasive organisms. Solenopsis invicta were used as test objects and tested by using a water test tube poison-feeding method.
# Operation process: Samples were weighed accurately, and respectively added with 200 μL of dimethyl sulfoxide to prepare 10 g/L mother liquor which was diluted into a concentration of 100 ppm with a mixed aqueous solution containing 0.05% of Tween-80 and 5% of honey during the test. […] The raising test tube was placed in a raising box horizontally, and a small amount of ham sausages were added to the raising test tube as food to raise the Solenopsis invicta at a constant temperature of 25° C. After being treated for 24 hours and 72 hours, a number of live Solenopsis invicta and a number of dead Solenopsis invicta were counted, and a mortality (%) was calculated according to a formula that mortality (%)=(number of live Solenopsis invicta in the control group−number of treated live Solenopsis invicta)/number of live Solenopsis invicta in the control group*100%.
# Spodoptera exigua = conditions: for mortality at 500 ppm: Spodoptera exigua, read-out: Spodoptera exigua Mortality (%) 500 ppm
# Method: (2) Insecticidal Activity on 2nd-Instar Larvae of Spodoptera exigua.
# Spodoptera exigua is a lepidoptera pest with a chewing mouthpart and is a common vegetable pest. The 2nd-instar larvae of Spodoptera exigua were used as test objects and tested by using a leaf immersion feeding method.
# (§1) Operation process: Samples were weighed accurately, and respectively added with 200 μL, of dimethyl sulfoxide to prepare 10 g/L mother liquor which was diluted into a concentration of 500 ppm with an aqueous solution containing 0.05% of Tween-80 during the test. A hole puncher with a diameter of 1.0 cm was used to make cleaned cabbage leaves into leaf discs. The leaf discs were immersed in a liquid medicine, taken out after 5 seconds, air-dried naturally, and transferred into a clean vessel. About 35 2nd -instar larvae of Spodoptera exigua were put into the vessel and fed at a constant temperature of 28° C. Each concentration was repeated 3 times, and an aqueous solution containing 0.05% of Tween-80 was used as a control group. After being treated for 24 hours, a number of dead Spodoptera exigua was counted, and a mortality (%) was calculated according to a formula that mortality (%)=(number of live larvae in the control group −number of treated live larvae)/number of live larvae in the control group * 100%.
# Plutella xylostella = conditions: for mortality at 500 ppm: Plutella xylostella, read-out: Plutella xylostella Mortality (%) 500 ppm
# Method: (1) Insecticidal Activity on 2nd-Instar Larvae of Plutella xylostella.
# Plutella xylostella (L.) is a lepidoptera pest with a chewing mouthpart and is a common vegetable pest. The 2nd-instar larvae of Plutella xylostella were used as test objects and tested by using a leaf immersion feeding method.
# as §1, with “μL” for “μL,”, “2nd-instar” for “2nd -instar”, “Plutella xylostella” for “Spodoptera exigua”, “group−number” for “group −number”, “group*100%.” for “group * 100%.”
# Aphis craccivora = conditions: for Aphis craccivora Mortality (%): immersion 5 seconds, counted after 24 hours; for mortality at 500 ppm: Aphis craccivora, read-out: Aphis craccivora Mortality (%) 500 ppm
# Method: (3) Insecticidal Activity on Aphid Adults.
# Aphid is a homoptera pest with a piercing-sucking mouthpart and is a common vegetable pest. Aphis craccivora were taken as test objects and tested by using an impregnation method.
# Operation process: Samples were weighed accurately, and respectively added with 200 μL of dimethyl sulfoxide to prepare 10 g/L mother liquor which was diluted into a concentration of 500 ppm with an aqueous solution containing 0.05% of Tween-80 during the test. After the wingless Aphis craccivora adults stably sucked on bean sprouts, the wingless Aphis craccivora adults together with the bean sprouts were immersed into a liquid medicine with a concentration of 500 ppm, taken out after 5 seconds, air-dried naturally, transferred into a clean vessel, and fed at a constant temperature of 23° C. Each concentration was repeated 3 times, and an aqueous solution containing 0.05% of Tween-80 was used as a control group. After being treated for 24 hours, a number of dead Aphis craccivora was counted, and a mortality (%) was calculated according to a formula that mortality (%)=(number of live Aphis craccivora in the control group−number of treated live Aphis craccivora)/number of live Aphis craccivora in the control group*100%.
# [1] = 100 ppm, 24 h, water test tube poison-feeding
# [2] = 100 ppm, 72 h, water test tube poison-feeding
# [3] = 500 ppm, 2nd-instar larvae, leaf immersion feeding
# [4] = 24 h, read-out: Solenopsis invicta Mortality (%) 100 ppm 24 h, 100 ppm, 24 h, water test tube poison-feeding
# [5] = 72 h, read-out: Solenopsis invicta Mortality (%) 100 ppm 72 h, 100 ppm, 72 h, water test tube poison-feeding
# [6] = 500 ppm, 2nd-instar larvae, leaf immersion feeding, 24 hours
# [7] = 500 ppm, wingless adults, impregnation method, 24 hours
Structure (SMILES),Solenopsis invicta Mortality (%) 24 h (Solenopsis invicta; [1]) [%],Solenopsis invicta Mortality (%) 72 h (Solenopsis invicta; [2]) [%],Spodoptera exigua Mortality (%) (Spodoptera exigua; [3]),Plutella xylostella Mortality (%) (Plutella xylostella; [3]),"Aphis craccivora Mortality (%) (Aphis craccivora; 500 ppm, wingless adults)",mortality at 100 ppm (Solenopsis invicta; [4]) [%],mortality at 100 ppm (Solenopsis invicta; [5]) [%],mortality at 500 ppm (Spodoptera exigua; 24 h) [%],mortality at 500 ppm (Plutella xylostella) [%],mortality at 500 ppm (Aphis craccivora; 24 h) [%],further results
COC(=O)C(C)C1Nc2c(OC(F)(F)F)c(C#N)nn2-c2c(Cl)cc(C(F)(F)F)cc21 (stereo not drawn) [d-122],24,95,84,91,90,,,,,,
COC(=O)CC1(C(=O)OC)Nc2c([S+](C)[O-])c(C(C)=O)nn2-c2c(Cl)cc(C(F)(F)F)cc21 (stereo not drawn) [Compound C48],,,,,,26,86,85,76,79,
CSc1nn2c(c1C(N)=O)NC(F)(C(F)(F)F)c1ccccc1-2 (stereo not drawn) [Compound A28],,,,,,29,97,90,100,100,
N#Cc1cnn2c1NC(N)(CN)c1ccc(Cl)cc1-2 (stereo not drawn) [Compound A24],,,,,,,,,,,Solenopsis invicta Mortality (%) 100 ppm 24 h (Solenopsis invicta; in vivo): 44%; Solenopsis invicta Mortality (%) 100 ppm 72 h (Solenopsis invicta; in vivo): 100%; Spodoptera exigua Mortality (%) 500 ppm (Spodoptera exigua; in vivo): 100%; Plutella xylostella Mortality (%) 500 ppm (Plutella xylostella; in vivo): 100%; Aphis craccivora Mortality (%) 500 ppm (Aphis craccivora; in vivo): 100%
COC(=O)CC1(C(=O)OC)Nc2c([S+]([O-])C(F)(F)F)c(C#N)nn2-c2c(C(F)(F)F)ccc(Cl)c21 (stereo not drawn) [e-1],33,100,100,100,100,,,,,,
CC[S+]([O-])c1c(C#N)nn2c1NC(CC(=O)OC)(C(=O)OC)c1cc(C(F)(F)F)cc(Cl)c1-2 (stereo not drawn) [d-14],24,100,89,90,100,,,,,,
C=CC1(C(F)(F)F)Nc2c(-c3ccccc3C(F)(F)F)c(C#N)nn2-c2c(Cl)cc(C(F)(F)F)cc21 (stereo not drawn) [Compound C11],,,,,,46,100,100,100,100,
N#Cc1nn2c(c1[S+]([O-])C(F)(F)F)NC(CC(=O)C(F)(F)F)(C(=O)C(F)(F)F)c1c(Cl)cncc1-2 (stereo not drawn) [b-25],26,100,100,100,100,,,,,,
COC(=O)C1(CC#N)Nc2c([S+](C)[O-])c(C(C)=O)nn2-c2c(Cl)cc(C(F)(F)F)cc21 (stereo not drawn) [Compound C44],,,,,,36,90,100,90,100,
CC1(C)Nc2c(NC(=O)Oc3ccccc3)c(C#N)nn2-c2ccccc21 [Compound A18],,,,,,,,,,,"mortality at 100 ppm (Solenopsis invicta; 100 ppm, 24 h, water test tube poison-feeding, read-out: Solenopsis invicta Mortality (%) 100 ppm 24 h): 44%; mortality at 100 ppm (Solenopsis invicta; 100 ppm, 72 h, water test tube poison-feeding, read-out: Solenopsis invicta Mortality (%) 100 ppm 72 h): 100%; mortality at 500 ppm (Spodoptera exigua; [6]): 100%; mortality at 500 ppm (Plutella xylostella; [3]): 100%; mortality at 500 ppm (Aphis craccivora; [7]): 100%"
N#Cc1nn2c(c1[S+]([O-])C(F)(F)F)NC(Cl)(CC(F)(F)F)c1c(Cl)cncc1-2 (stereo not drawn) [b-48],15,90,89,100,100,,,,,,
CNCC1(CC#N)Nc2c([S+](C)[O-])c(C(C)=O)nn2-c2c(Cl)cc(C(F)(F)F)cc21 (stereo not drawn) [Compound C42],,,,,,20,70,94,91,100,
N#Cc1nn2c(c1[S+]([O-])C(F)(F)F)NC(CC(=O)C(F)(F)F)(C(=O)C(F)(F)F)c1cc(C(F)(F)F)cc(Cl)c1-2 (stereo not drawn) [d-50],26,93,90,100,100,,,,,,
COC(=O)CC1(C(=O)C(F)(F)F)Nc2c([S+]([O-])C(F)(F)F)c(C#N)nn2-c2c(Cl)cc(C(F)(F)F)cc21 (stereo not drawn) [d-54],21,99,99,100,100,,,,,,
CC=CC1Nc2c([S+]([O-])C(F)(F)F)c(C#N)nn2-c2cncc(Cl)c21 (stereo not drawn) [b-86],20,97,89,96,100,,,,,,
CC[S+]([O-])c1c(C#N)nn2c1NC(/C=C/C(=O)OC)(CC#N)c1cc(C(F)(F)F)cc(Cl)c1-2 (stereo not drawn) [Compound C59],,,,,,29,100,90,100,100,
N#Cc1nn2c(c1[S+]([O-])C(F)(F)F)NC(C(O)CO)(C(F)(F)F)c1cc(C(F)(F)F)cc(Cl)c1-2 (stereo not drawn) [Compound C57],,,,,,20,89,76,78,80,
CCOC(=O)CC1(C(=O)OCC)Nc2c([S+]([O-])C(F)(F)F)c(C#N)nn2-c2ncc(C(F)(F)F)cc21 (stereo not drawn) [a-22],,,,,,,,,,,Solenopsis invicta Mortality (%) 100 ppm 24 h (Solenopsis invicta; [1]): 30%; Solenopsis invicta Mortality (%) 100 ppm 72 h (Solenopsis invicta; [2]): 100%; Spodoptera exigua Mortality (%) 500 ppm (Spodoptera exigua; [6]): 100%; Plutella xylostella Mortality (%) 500 ppm (Plutella xylostella; [3]): 100%; Aphis craccivora Mortality (%) 500 ppm (Aphis craccivora; [7]): 100%
CCSc1c(C#N)nn2c1NC(C)(C)c1ccccc1-2 [Compound A9],,,,,,24,100,100,100,100,
CCOC(=O)C1(CC(=O)OC)Nc2c([S+]([O-])C(F)(F)F)c(C#N)nn2-c2cncc(Cl)c21 (stereo not drawn) [b-23],10,97,95,96,100,,,,,,
C=CC1(C(F)(F)F)Nc2c(Br)c(C#N)nn2-c2c(Cl)cc(C(F)(F)F)cc21 (stereo not drawn) [Compound C7],,,,,,38,100,100,100,100,
